Earlier results in PMC2063170, “A phase I clinical and pharmacokinetic study of the new topoisomerase inhibitor GI147211 given as a 72-h continuous infusion” (British Journal of Cancer, 1998).

Set-up: method as in Burris et al. 1994
Conditions: ref Burris et al. 1994, cited from earlier work

## CC[C@@]1(O)C(=O)OCc2c1cc1n(c2=O)Cc2cc3c(CN(C)C)c(O)ccc3nc2-1 [topotecan]
Continuous infusion for 3 days every 3 weeks
  MTD: 1.6 mg m-2 day-1
plasma, 1.6 mg m-2 day-1 continuous infusion for 3 days every 3 weeks
  Css of lactone at MTD: 5.5 ng/mL
